In paper PMC4534002 (Journal of medicinal chemistry, 2013):

How the values were obtained:
CYP3A4 [1] = target: T1, CYP3A4 (Homo sapiens, UniProt P08684); test: Thermal denaturation of CYP3A4-inhibitor complex, WT; type: binding; conditions: WT CYP3A4 2 µM, 10 µM inhibitor; ligand-free 52.6 ± 0.1, with 2% DMSO 52.1 ± 0.1
CYP3A4 S119A = CYP3A4 S119A (Homo sapiens, UniProt P08684, S119A); test: Thermal denaturation of CYP3A4 S119A-inhibitor complex; type: binding; conditions: for Tm: CYP3A4 S119A mutant, ligand-free 54.0 ± 0.1, with 2% DMSO 53.5 ± 0.1; for decrease in Tm of ligand-bound S119A CYP3A4 vs wild type: S119A vs WT
CYP3A4 [2] = target: T1, CYP3A4; test: Dissociation during repetitive concentration/dilution cycles; type: binding
CYP3A4 [3] = target: T1, CYP3A4; test: Redox potential measurement of inhibitor-bound CYP3A4; conditions: for Eo,7 (midpoint redox potential of the inhibitor-bound CYP3A4): ligand-free CYP3A4 ~−300 mV, benzyl viologen as redox dye; for negative shift (decrease) in heme redox potential Eo,7 caused by ligation: relative to ligand-free CYP3A4
CYP3A4 [4] = target: T1, CYP3A4; test: Spectral binding titration; conditions: WT CYP3A4, relative to ritonavir
CYP3A4 [5] = target: T1, CYP3A4; test: BFC hydroxylase activity inhibition in reconstituted system with CPR; conditions: from IC50 values

Row | Tm (melting temperature of the CYP3A4-inhibitor complex) (CYP3A4 [1]) | Tm (CYP3A4 S119A) | decrease in Tm of ligand-bound S119A CYP3A4 vs wild type (CYP3A4 S119A) | reversibility of binding (dissociation from CYP3A4) (CYP3A4 [2]) | Eo,7 (midpoint redox potential of the inhibitor-bound CYP3A4) (CYP3A4 [3]) | negative shift (decrease) in heme redox potential Eo,7 caused by ligation (CYP3A4 [3]) | fold lower binding affinity for CYP3A4 than ritonavir (from Ks) (CYP3A4 [4]) | fold lower inactivating potency than ritonavir (CYP3A4 [5]) | fold more effective inhibition of BFC hydroxylation than ritonavir (CYP3A4 [5]) | Structure (SMILES)
1 | 56.5 ± 0.2 °C | 55.5 ± 0.2 °C | 1–1.6 °C | dissociated | <<-370 mV | > 70 mV |  |  |  | CC(C)c1nc(CN(C)C(=O)N[C@H](C(=O)N[C@H](CC[C@H](Cc2ccccc2)NC(=O)OCc2cnc[nH]2)Cc2ccccc2)C(C)C)cs1 [compound 1]
2 | 54.8 ± 0.1 °C | 53.2 ± 0.1 °C | 1–1.6 °C | dissociated | ≈ −370 mV | ~ 50 mV | 10 fold | 6 fold |  | CC(C)c1nc(CN(C)C(=O)N[C@H](C(=O)N[C@H](CC[C@H](Cc2ccccc2)NC(=O)OCc2cnco2)Cc2ccccc2)C(C)C)cs1 [compound 2]
3 | 57.2 ± 0.2 °C | 55.6 ± 0.2 °C | 1–1.6 °C | irreversibly | −350 ± 5 mV | ~70 mV |  |  | 2–4 fold | CC(C)c1nc(CN(C)C(=O)N[C@H](C(=O)N[C@H](CC[C@H](Cc2ccccc2)NC(=O)OCc2cccnc2)Cc2ccccc2)C(C)C)cs1 [compound 3]
